The text below walks through data of patent US9181375B2, “Fluorescent potassium ion sensors” (ARIZONA BOARD OF REGENTS, A BODY CORPORATE OF THE STATE OF …, priority 2011, dated 2015).

The subject of one series is E. coli. As to the kind of experiment: K+ release from bacteria stimulated by lysozyme, measured with F4 film. Type of series: cell-based, E. coli JM 109. The conditions noted are these: lysozyme added to bacteria in 150 mM NaCl buffer pH 7.4, F4 film. Here is the method:
(§1) E. coli JM 109 and B. subtilis 168 were cultured overnight in LB medium (Difco®, Becton, Dickinson and Company, Sparks, Md.) by shaking at 180 rpm at 37° C. The concentration of E. coli and B. subtilis in culture was estimated by measuring the optical density at 600 nm (OD600). OD600 value of 1 indicated a concentration of 5.0×10^8 cfu/mL. After the microorganism density was determined, bacterial cells were collected by centrifuge at 2000×g for 20 minutes at room temperature. Then appropriate densities of bacteria were made using fresh buffer (150 mM NaCl, pH 7.4) to achieve the desired initial concentrations for experiments.
(§2) The F4 film (Example 16) was placed diagonally into quartz cuvettes with 2 mL of bacteria suspension at different densities. […] The potassium ion concentration was calculated from the measured fluorescence ratio (F/F0).
(§3) F4 film was used for both gram positive (i.e. B. subtilis) and negative (i.e. E. coli) bacteria and lysozyme was used as a model drug to stimulate K^+ efflux from the organisms. […] The washed organisms were resuspended in 2 mL of the potassium-free buffer in quartz cuvettes at a concentration range of 1.5×10^10 to 1.0×10^11 cfu/mL F4 was immersed into the above prepared mixtures, and then lysozyme was added into the cuvettes to stimulate the K^+ efflux, which was monitored through the time dependent fluorescence intensity changes of F4 film. […]

For another series, the system named is B. subtilis. Described as above. The class given is cell-based, B. subtilis 168. The settings on record: lysozyme added to bacteria in 150 mM NaCl buffer pH 7.4, F4 film. The protocol: as §1, §2, §3
Series [1] relates to CP-A cells. As to the kind of experiment: Intracellular K+ efflux monitored with 1(a), microplate reader. The class given is cell-based. The settings on record: cells loaded with 2 μM 1(a); nigericin 5 μM, bumetanide 10 μM, ouabain 10 μM; 2.5 h.
Protocol: (§6) U87MG and CP-A cells were seeded onto 96 well plates at 10,000 cells per well and maintained in 100 μL medium overnight. The following day, the cells were loaded with 1(a) (2 μM) for 20 min, then the excess 1(a) was removed by washing with medium. The test substances were added and the experiment was terminated after 2.5 h by washing the cells with physiological NaCl solution. A microplate reader (Molecular Device, Downingtown, Pa.) was used to read the fluorescence intensities from the intracellular 1(a). 444 nm was used to excite the sensor and the emission was measured at 538 nm. The measured fluorescence intensities were corrected with background fluorescence. Each experiment was repeated in triplicate.
(§7) The decrease of the fluorescence intensities indicates the efflux of the intracellular potassium ions from the cells.
Series [2] relates to U87MG cells. The description is as above. Type of series: cell-based, human. The conditions noted are these: cells loaded with 2 μM 1(a); nigericin 5 μM, bumetanide 10 μM, ouabain 10 μM; 2.5 h.
Protocol: as §6, §7
Series [3] concerns U87MG cells. Kind of series: Dynamic K+ influx and efflux monitored with 2(a) after nigericin. The conditions noted are these: nigericin 20 μM in 20 mM KCl medium. The class given is cell-based, human. Here is the method: 2(a) was further tested for in-situ observation of dynamic potassium ion influx and then efflux through the changes of fluorescence (FIG. 15) stimulated by an ionophore nigericin. Cells internalized with 4 μM of 2(a) at 37° C. for 10 minutes were washed with 20 mM KCl-containing fresh medium. Nigericin (20 μM at its final concentration) was added in 20 mM KCl-containing medium to help K^+ to across cell membrane. Enhanced fluorescence was immediately observed after the addition of nigericin, indicating potassium ion influx occurred. The potassium influx peaked after 3 minutes with an average of fluorescence increase of 370%. After 3 minutes, potassium efflux was observed by the decrease of the fluorescence. The efflux stabilized after 15 minutes, and the fluorescence intensity after the stabilization was about 25% below that of before the stimulation by nigericin. The ionophore nigericin was used to stimulate K^+ influx for yeast Saccharomyces cerevisiae. It was also reported to be a K^+ efflux stimulator for human colorectal adenocarcinoma HT-29 cells.

Series [4] is described as follows: Fluorescence response of sensors to other cations and pH in buffer (selectivity). Here is the method: (§4) To determine sensor responses, 50 μL of 2(a) (Example 10) was dissolved in DMSO resulting in a concentration of 200 μM which was then added into 2 mL of HEPES (10 mM, pH 7.2) buffer. […] Different metal ion concentrations were added into the solution for studying 2(a)'s responses. Although the reaction of the compound and the metal ion was rapid (usually within seconds), the spectra was measured after 2 minutes to ensure stability. 2(a)/metal ion complexes were excited at 561 nm and emissions were collected from 600 to 750 nm.
2(a) was also tested against physiological concentration levels of the following metal ions: K^+, Na^+, Ca^2+, Mg^2+, Fe^3+, Zn^2+, Mn^2+, and Cu^2+. […] Furthermore, this trend was also present when the concentrations of Na^+, Ca^2+, and Mg^2+ were increased to 140 mM (FIG. 9).
Na^+ is usually an interference ion to K^+ for the typical K^+ probes including PBFI, CD18, C18, and MCC.

Series [5] has as its system CP-A cells. As to the kind of experiment: Cytotoxicity by Trypan blue staining. Type of series: cell-based. The conditions noted are these: 1(a) internalized for 30 minutes. Here is the method:
(§5) Cytotoxicity of the sensor 1(a) to cells was studied using Trypan blue staining. After 30 minutes internalization of the sensor with cells, more than 97% cells were viable, showing the non-cytotoxicity of 1(a) to the two cell lines under our experimental conditions.

The subject of series [6] is U87MG cells. As to the kind of experiment: Cytotoxicity by Trypan blue staining. The class given is cell-based. Here is the method:
Cytotoxicity of 2(a) to human glioblastoma U87MG cells was studied using Trypan blue staining. To cell culture medium (100 μL) with eukaryotic cells in a 96 well microplate with 10,000 cells/well that had internalized 2(a) for 2 hours, […] of 0.4% Trypan Blue stain was added and mixed thoroughly with the medium. After standing for 5 min at room temperature (23° C.), the cells were imaged using an optical microscope in bright field mode. Dead cells appeared blue from the Trypan Blue stain, whereas healthy cells appeared transparent as a result of the cell's resistance to stain. The cells were then counted and the ratio of dead cells to live cells was calculated. Each experiment was repeated three times.
as §5

Series [7] can be described thus: Fluorescence titration of 1(a) with KCl in HEPES buffer, Benesi-Hildebrand plot. Type of series: binding. The conditions noted are these: 10 mM HEPES pH 7.4, excitation 450 nm, emission 525 nm. The protocol:
FIGS. 17A and 17B show the UV-Vis and emission spectral changes upon the interaction of 1(a) with potassium chloride (KCl) in 10 mM HEPES buffer (pH 7.4). […] This fluorescence change was attributed to photo-induced electron transfer. The lone electron pairs of the amino groups in the triazacryptand ligand quench the emission of the fluorophore of the amino-naphthalimide through PET. After interaction with K^+, the lone electron pairs of the ligand were occupied due to the formation of the ligand-K^+ complex. This change restores the emission of the amino-naphthalimide fluorophore. Fluorescence intensity change at 525 nm was plotted again K^+ concentration, which is illustrated in FIG. 17C. Binding constant K could be determined by the fluorescence spectral change using the Benesi-Hildebrand equation as described above.
Curve fitting of the fluorescence intensity of 1(a) against the reciprocal of the K^+ concentration (1/[K^+]), the Benesi-Hildebrand plot, gives a linear fit (FIG. 17D).

For series [8], the system named is U87MG cells. As to the kind of experiment: Intracellular K+ influx monitored with 2(a), confocal fluorescence, ImageJ. Type of series: cell-based, human. The conditions noted are these: isoproterenol 5 μM with 20 mM KCl in medium, 40 minutes, 37° C.; 2(a) 4 μM. The protocol: 2(a) can also be used to monitor K^+ influx through stimuli. […] The influx stimulator (isoproterenol in KCl-containing PBS buffer) was added. Final concentrations of the added isoproterenol and KCl in the cell culture medium were 5 μM and 20 mM, respectively.

Series [9] in a line: Fluorescence titration of 2(a) with KCl in HEPES buffer, Benesi-Hildebrand plot. The class given is binding. The conditions noted are these: HEPES pH 7.2. Here is the method: as §4
2(a) is constructed using strong electron-donating (aniline) and electron-withdrawing (TCF) groups, yielding an absorption maximum at 560 nm. The extinction coefficient (s) at 560 nm is 3.84×10^4 M^−1 cm^−1. […] Upon addition of K^+, the fluorescence intensity of 2(a) increases by ca. 4 and 50 fold at K^+ concentrations of 140 mM and 1400 mM (FIGS. 8A and 8B), respectively, resulting in corresponding η of 0.52% and 5.6%. Kd was determined by the Benesi-Hildebrand equation: F0/(F0−F)=F0/(F0−Fcomplex)+F0/(F0−Fcomplex)×Kd×1/[M] (1) where F0 is the integrated fluorescence intensity of a free sensor, F is the observed integrated fluorescence intensity, Fcomplex is the emission of the ligand-metal ion complex, and [M] is the metal ion concentration. When F0/(F0−F) is plotted against 1/[M], the binding constant is given by the ratio intercept/slope. […]

The nature of series [10]: Fluorescence quantum yield against Rhodamine B standard. Type of series: physicochemical. The protocol: The fluorescence quantum yields (η) of samples in solutions were recorded by using Rhodamine B in ethanol (η=0.65) excited at 540 nm and were calculated according to the following equation:
[formula] where (ηr) and (ηs) are the fluorescence quantum yields of standards and the samples, respectively. Ar and As are the absorbance of the standards and the measured samples at the excitation wavelength, respectively. Ir and Is are the integrated emission intensities of standards and the samples, respectively. nr and ns are the refractive indices of the corresponding solvents present in the solutions, respectively. The experimental error was approximately 10%.

For lysozyme, the “K^+ efflux from bacteria over time” value in the series on E. coli is given as “K^+ efflux increased slowly over time”; in the series on B. subtilis, “K^+ efflux was very fast, within the first 10 minutes”.

Turning to `CO[C@@H]1C[C@@H](C[C@H]2CC[C@H](C)[C@H]([C@@H](C)C(=O)O)O2)O[C@]2(O[C@](C)([C@H]3CC[C@@](C)([C@@H]4O[C@@H]([C@H]5O[C@@](O)(CO)[C@H](C)C[C@@H]5C)C[C@@H]4C)O3)C[C@H]2C)[C@@H]1C` [nigericin], the “K^+ efflux, decrease of 1(a) fluorescence” value with CP-A cells [1] and with U87MG cells [2] was “not an efficient K^+ efflux stimulator” in each case. In addition, the “fluorescence intensity after stabilization, below that before stimulation” value with U87MG cells [3] (efflux stabilized after 15 minutes) is listed as “about 25%”. The “average fluorescence increase at peak of potassium influx” value in the series with U87MG cells [3] (peak after 3 minutes, 2(a) 4 μM) was found to be 370%.

In the case of `C=CCN1C(=O)c2cccc3c(NCCc4ccc(N5CCOc6cc(C)ccc6N6CCOCCOCCN(CCOCCOCC6)c6ccc(C)cc6OCC5)c(OCCOC)c4)ccc(c23)C1=O` [1(a)], the “selectivity against biologically relevant metal ions” value in series [4] (1(a), Na^+, Ca^2+, Mg^2+, Fe^3+, Zn^2+, Mn^2+, Cu^2+ at physiological concentrations (FIG. 17E)) is recorded as “high selectivity”. Moreover, the viable cells entry in the series with CP-A cells [5] is listed as “more than 97%”; with U87MG cells [6] (1(a) internalized for 30 minutes, Trypan blue), “more than 97%”. Further, the “binding constant (K)” value in series [7] turned out to be 0.133 mM⁻¹.

Regarding `CC(C)NCC(O)c1ccc(O)c(O)c1` (stereo not shown) [isoproterenol], in the series with U87MG cells [8], the “increase of average fluorescence intensity of cells after treatment” value was found to be 33%.

Regarding `COCCOc1cc(/C=C/C2=C(C#N)C(=C(C#N)C#N)OC2(C)C)ccc1N1CCOc2cc(C)ccc2N2CCOCCOCCN(CCOCCOCC2)c2ccc(C)cc2OCC1` [2(a)], the “selectivity to K^+ against other metal ions” value in series [4] (Na^+, Ca^2+, Mg^2+, Fe^3+, Zn^2+, Mn^2+, Cu^2+ at physiological levels, Na^+, Ca^2+, Mg^2+ also at 140 mM) is given as “high selectivity”. Also, the “sensitivity to pH” value in series [4] (pH 5 to 8) is given as “not sensitive to pH in the range of 5 to 8”. Further, the viable cells result with U87MG cells [6] (human, 2 h) is given as “more than 97%”. Also, the “fluorescence intensity increase upon addition of K^+” value in [9] (K^+ 140 mM) is reported as “ca. 4 fold”; in series [9] (K^+ 1400 mM), around 50 fold. The “quantum yield (η)” value in [10] (K^+ 140 mM) is given as 0.52%; in series [10] (K^+ 1400 mM), 5.6%; in [10] (free form, no K^+), 0.11%.
